Data: patent US20230242830A1 (priority 2020, published 2023)

Columns and labels:
[1] = biological target: T1, human erythrocyte AChE (hAChE) (Homo sapiens, UniProt P22303); assay: acetylcholinesterase inhibition, Ellman spectrometric method; type: biochemical
T1 construct: The human erythrocyte AChE (hAChE, aqueous buffer solution); purchased Sigma Aldrich; host or cells: human erythrocytes (natural source)
Experimental: (§1) In the extent that the toxic activity of TCP especially involves its action on cholinesterases, the effect of the compounds used according to the invention, as well as comparative compounds, on two cholinesterases was studied. The concentration values of each compound required to inhibit 50% of the activity of two cholinesterases were measured. The higher the 50% inhibitory concentration (IC50), the less the compound is neurotoxic since it has a weaker action on the cholinesterase.
(§2) The inhibitory capacity of the compounds on the acetylcholinesterase (AChE) and butyrylcholinesterase (BuChE) biological activity was assessed using the spectrometric method of Ellman (Ellman et al., Biochem. Pharm. 1961, 7, 88-95).
(§3) The acetylthiocholine and butyrylthiocholine iodide, and 5,5-dithiobis (2-nitrobenzoic) acid (DTNB) were purchased from Sigma Aldrich (Steinheim, Germany).
(§4) The BuChE freeze-dried from equine serum (eqBuChE, Sigma Aldrich) was dissolved in 0.1 M phosphate buffer (pH 7.4) to obtain enzyme stock solutions with an enzymatic activity of 2.5 units/mL. The human erythrocyte AChE (hAChE, aqueous buffer solution, ≥500 units/mg of protein (BCA), Sigma Aldrich) was diluted in 20 mM HEPES buffer, pH 8, with 0.1% Triton X-100 to obtain enzymatic solution with an enzymatic activity of 0.25 unit/mL.
(§5) In the procedure, 100 µL of 0.3 mM DTNB dissolved in phosphate buffer, pH 7.4, were added in 96-well plates, followed by 50 µL solution of the test compound and 50 µL enzyme (final 0.05 U). After 5 minutes of pre-incubation at 25° C., the reaction was initiated by injecting 50 µL of 0.1 mM acetyl or butyryl thiocholine iodide solution. The acetyl or butyryl thiocholine hydrolysis was followed by the formation of yellow 5-thio 2-nitrobenzoate anion as the product of the reaction of DTNB with the thiocholine released by the enzymatic hydrolysis of the acetyl or butyryl thiocholine, at a wavelength of 412 nm, using a microplate reader (Synergy 2, Biotek, Colmar, France). The compounds to be tested were dissolved to 5×10^-3 M in analytical grade DMSO. Donepezil or tacrine were used as reference standards. The absorption increase rate at 412 nm was determined 4 minutes after the addition of the acetyl or butyryl thiocholine iodide solution. The tests were carried out with a blank containing all the compounds except the acetyl or butyryl thiocholine in order to take into account non-enzymatic reactions.
(§6) The percentage of inhibition due to the presence of the test compounds was calculated using the following expression: […]
(§7) wherein vi is the rate calculated in the presence of the inhibitor, and v0 is the enzymatic activity.
(§8) IC50 values were graphically determined by plotting the percentage of inhibition as a function of the logarithm of six inhibitor concentrations in the test solution using the GraphPadPrism software (version 6.01, GraphPad Software, La Jolla, Calif., USA). All the experiments were carried out in n=3.

[2] = biological target: T2, BuChE from equine serum (eqBuChE) (Equus caballus, UniProt P81908); assay: butyrylcholinesterase inhibition, Ellman spectrometric method; type: biochemical
T2 construct: The BuChE freeze-dried from equine serum (eqBuChE, Sigma Aldrich); purchased Sigma Aldrich; host or cells: equine serum (natural source)
Experimental: as §1, §2, §3, §4, §5, §6, §7, §8

T2 sequence (P81908 whole entry): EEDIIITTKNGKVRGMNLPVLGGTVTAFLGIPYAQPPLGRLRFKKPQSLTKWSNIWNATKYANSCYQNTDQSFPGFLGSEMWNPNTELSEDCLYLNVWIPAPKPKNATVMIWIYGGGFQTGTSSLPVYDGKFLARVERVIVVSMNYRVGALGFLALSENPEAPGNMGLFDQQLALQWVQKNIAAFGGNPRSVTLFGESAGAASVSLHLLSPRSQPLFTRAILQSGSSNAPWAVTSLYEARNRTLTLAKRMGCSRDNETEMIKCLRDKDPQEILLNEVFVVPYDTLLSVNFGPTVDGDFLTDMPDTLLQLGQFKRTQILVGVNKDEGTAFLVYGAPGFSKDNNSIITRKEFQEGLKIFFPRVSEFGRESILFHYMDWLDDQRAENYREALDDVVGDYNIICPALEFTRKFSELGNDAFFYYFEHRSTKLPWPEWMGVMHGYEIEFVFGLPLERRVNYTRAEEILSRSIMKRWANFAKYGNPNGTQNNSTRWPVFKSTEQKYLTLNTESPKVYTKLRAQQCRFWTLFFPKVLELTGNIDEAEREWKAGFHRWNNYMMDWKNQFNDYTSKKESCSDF
T1 sequence (P22303 32-617 isoform P22303-2 limits assumed): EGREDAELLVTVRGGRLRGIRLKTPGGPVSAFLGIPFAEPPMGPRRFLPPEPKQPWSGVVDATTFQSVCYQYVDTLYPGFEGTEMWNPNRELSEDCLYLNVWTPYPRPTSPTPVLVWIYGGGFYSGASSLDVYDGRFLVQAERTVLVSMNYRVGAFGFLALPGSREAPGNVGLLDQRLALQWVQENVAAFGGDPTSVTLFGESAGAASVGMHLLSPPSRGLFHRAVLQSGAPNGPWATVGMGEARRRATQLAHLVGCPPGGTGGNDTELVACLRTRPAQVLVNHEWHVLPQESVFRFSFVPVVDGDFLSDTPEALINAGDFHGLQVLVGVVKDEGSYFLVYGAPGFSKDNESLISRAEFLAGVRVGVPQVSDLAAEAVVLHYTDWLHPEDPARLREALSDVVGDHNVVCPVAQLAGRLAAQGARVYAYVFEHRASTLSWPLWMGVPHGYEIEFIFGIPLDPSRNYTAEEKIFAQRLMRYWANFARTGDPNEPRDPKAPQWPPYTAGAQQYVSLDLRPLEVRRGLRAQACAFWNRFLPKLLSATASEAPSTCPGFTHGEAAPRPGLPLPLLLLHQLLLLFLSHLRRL

dimer diol (C34-36) bis(diphenylphosphate) [Compound 22]
lC50 hAChE ([1]; Table 1, n=3): 15.6 mq/L
lC50 eqBuChE ([2]; Table 1, n=3): 88.3 mg/L

O=P(Oc1ccccc1)(Oc1ccccc1)Oc1ccc(C2(c3ccc(OP(=O)(Oc4ccccc4)Oc4ccccc4)cc3)c3ccccc3-c3ccccc32)cc1 [Compound 21, 9,9-bis(4-hydroxyphenyl)fluorene bis(diphenylphosphate)]
IC50 [1]: 29.6 µM
IC50 [2]: 106 µM

CC(c1ccccc1)(c1ccc(OP(=O)(Oc2ccccc2)Oc2ccccc2)cc1)c1ccc(OP(=O)(Oc2ccccc2)Oc2ccccc2)cc1 [Compound 19, 4,4′-(α-methylbenzylidene)bisphenol bis(diphenylphosphate)]
IC50 [1]: 46 µM
IC50 [2]: 147 µM

CC(C)(C)c1ccc(OP(=O)(Oc2ccc(C(C)(C)C)cc2)Oc2ccc(C(C)(C)C)cc2)cc1 [Compound I2, Tri(p-tert-butylphenyl)phosphate, reference compound]
inhibition on butyrylcholinesterase / lC50 for eqBuChE, in words [2]: reduced inhibition

CC(C)(C)c1cc(OP(=O)(Oc2ccccc2)Oc2ccccc2)ccc1OP(=O)(Oc1ccccc1)Oc1ccccc1 [Compound 12, tert-butyl hydroquinone bis(diphenylphosphate)]
IC50 [1]: 23.8 µM
IC50 [2]: 104 µM

O=P(Oc1ccccc1)(Oc1ccccc1)Oc1ccc(OP(=O)(Oc2ccccc2)Oc2ccccc2)c(Cl)c1 [Y, 2-chlorohydroquinone bis(diphenylphosphate), reference compound]
IC50 [1]: 41.1 µM
IC50 [2]: 1 µM

O=C(c1ccc(OP(=O)(Oc2ccccc2)Oc2ccccc2)cc1)c1ccc(OP(=O)(Oc2ccccc2)Oc2ccccc2)cc1 [Compound 16, 4,4′-dihydroxybenzophenone bis(diphenylphosphate)]
IC50 [1]: 39.8 µM
IC50 [2]: 164 µM

O=P(Oc1ccccc1)(Oc1ccccc1)Oc1ccc(C2(c3ccc(OP(=O)(Oc4ccccc4)Oc4ccccc4)cc3)CCCCC2)cc1 [Compound 20, 1,1-bis-(4-hydroxyphenyl)cyclohexane bis(diphenylphosphate)]
IC50 [1]: 35.5 µM
IC50 [2]: 399 µM

CC(=O)c1cc(OP(=O)(Oc2ccccc2)Oc2ccccc2)ccc1OP(=O)(Oc1ccccc1)Oc1ccccc1 [Z, (2,5-dihydroxy)1-acetophenone bis(diphenylphosphate), reference compound]
IC50 [1]: 29.8 µM
IC50 [2]: 0.114 µM

O=P(Oc1ccccc1)(Oc1ccccc1)Oc1ccc(OP(=O)(Oc2ccccc2)Oc2ccccc2)c(-c2ccccc2)c1 [Compound 11, phenylhydroquinone bis(diphenylphosphate)]
IC50 [1]: 35.5 µM
IC50 [2]: 25.8 µM

O=P(Oc1ccccc1)(Oc1ccccc1)Oc1ccc(C(c2ccc(OP(=O)(Oc3ccccc3)Oc3ccccc3)cc2)(C(F)(F)F)C(F)(F)F)cc1 [Compound 18]
IC50 [1]: 34 µM
IC50 [2]: 141 µM

O=P(Oc1ccccc1)(Oc1ccccc1)Oc1ccc2ccc(OP(=O)(Oc3ccccc3)Oc3ccccc3)cc2c1 [Compound 15, 2,7-dihydroxynaphthalene bis(diphenylphosphate)]
IC50 [1]: 28.8 µM
IC50 [2]: 90.1 µM

CC(c1ccc(OP(=O)(Oc2ccccc2)Oc2ccccc2)cc1)(c1ccc(OP(=O)(Oc2ccccc2)Oc2ccccc2)cc1)c1ccc(OP(=O)(Oc2ccccc2)Oc2ccccc2)cc1 [Compound 23, 1,1,1-Tris(4-hydroxyphenyl)ethane tris(diphenylphosphate)]
IC50 [1]: 19.8 µM
IC50 [2]: 70.9 µM

O=P(Oc1ccccc1)(Oc1ccccc1)Oc1cc(OP(=O)(Oc2ccccc2)Oc2ccccc2)c2ccccc2c1 [X, 1,3-dihydroxynaphthalene bis(diphenylphosphate), reference compound]
IC50 [1]: 26.4 µM
IC50 [2]: 7.21 µM

O=P(Oc1ccccc1)(Oc1ccccc1)Oc1ccc(S(=O)(=O)c2ccc(OP(=O)(Oc3ccccc3)Oc3ccccc3)cc2)cc1 [Compound 17, bis(4-dihydroxyphenyl)sulfone bis(diphenylphosphate)]
IC50 [1]: 30.2 µM
IC50 [2]: 96.4 µM

CC(C)(C)c1cc(OP(=O)(Oc2ccccc2)Oc2ccccc2)c(C(C)(C)C)cc1OP(=O)(Oc1ccccc1)Oc1ccccc1 [Compound 13, 2,5-di-tert-butyl hydroquinone bis(diphenylphosphate)]
IC50 [1]: 27.1 µM
IC50 [2]: 111 µM

O=P(Oc1ccccc1)(Oc1ccccc1)Oc1ccc(OP(=O)(Oc2ccccc2)Oc2ccccc2)c2ccccc12 [Compound 14, 1,4-dihydroxynaphthalene bis(diphenylphosphate)]
IC50 [1]: 27.4 µM
IC50 [2]: 127 µM
